PubChem BioAssay (NCI)
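Where inhibition never reached the appropriate level, the endpoint shown equals the highest concentration tested. Otherwise, values were interpolated linearly from a five-concentration, 48-hour dose response in 96-well plates. Definition used: TGI = concentration required for complete inhibition of growth.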

Assays:
Assay in all cases: NCI anticancer screen, dose series, 48 h
HCT-15 colon = tested on: HCT-15 colon
TK-10 renal = tested on: TK-10 renal
EKVX NSCLC = tested on: EKVX NSCLC
T-47D breast = tested on: T-47D breast
PC-3 prostate = tested on: PC-3 prostate
MDA-N = tested on: MDA-N
CCRF-CEM leukemia = tested on: CCRF-CEM leukemia
U251 CNS = tested on: U251 CNS
SF-539 CNS = tested on: SF-539 CNS
OVCAR-5 ovarian = tested on: OVCAR-5 ovarian
BT-549 breast = tested on: BT-549 breast
UACC-257 melanoma = tested on: UACC-257 melanoma
SK-MEL-5 melanoma = tested on: SK-MEL-5 melanoma
HOP-92 NSCLC = tested on: HOP-92 NSCLC
NCI-H460 lung = tested on: NCI-H460 lung
OVCAR-3 ovarian = tested on: OVCAR-3 ovarian
UACC-62 melanoma = tested on: UACC-62 melanoma
OVCAR-8 ovarian = tested on: OVCAR-8 ovarian
A549 NSCLC = tested on: A549 NSCLC
MOLT-4 leukemia = tested on: MOLT-4 leukemia
NCI/ADR-RES ovarian = tested on: NCI/ADR-RES ovarian
IGROV1 ovarian = tested on: IGROV1 ovarian
MCF7 breast = tested on: MCF7 breast
K-562 leukemia = tested on: K-562 leukemia
786-0 renal = tested on: 786-0 renal
NCI-H226 lung = tested on: NCI-H226 lung
SF-295 CNS = tested on: SF-295 CNS
NCI-H23 lung = tested on: NCI-H23 lung
COLO 205 colon = tested on: COLO 205 colon
RXF 393 renal = tested on: RXF 393 renal
SK-OV-3 ovarian = tested on: SK-OV-3 ovarian
RPMI-8226 leukemia = tested on: RPMI-8226 leukemia
SF-268 CNS = tested on: SF-268 CNS
SNB-19 CNS = tested on: SNB-19 CNS
SW-620 colon = tested on: SW-620 colon
A498 renal = tested on: A498 renal
HS 578T breast = tested on: HS 578T breast
MDA-MB-435 = tested on: MDA-MB-435
HT29 colon = tested on: HT29 colon
MALME-3M melanoma = tested on: MALME-3M melanoma
HCT-116 colon = tested on: HCT-116 colon
NCI-H522 lung = tested on: NCI-H522 lung
SK-MEL-28 melanoma = tested on: SK-MEL-28 melanoma
MDA-MB-231 breast = tested on: MDA-MB-231 breast
M14 melanoma = tested on: M14 melanoma
HCC-2998 colon = tested on: HCC-2998 colon
HOP-62 NSCLC = tested on: HOP-62 NSCLC
SK-MEL-2 melanoma = tested on: SK-MEL-2 melanoma
SR leukemia = tested on: SR leukemia
SN12C renal = tested on: SN12C renal
OVCAR-4 ovarian = tested on: OVCAR-4 ovarian
HL-60(TB) leukemia = tested on: HL-60(TB) leukemia
ACHN renal = tested on: ACHN renal
SNB-75 CNS = tested on: SNB-75 CNS
CAKI-1 renal = tested on: CAKI-1 renal
KM12 colon = tested on: KM12 colon
DU-145 prostate = tested on: DU-145 prostate
UO-31 renal = tested on: UO-31 renal
LOX IMVI melanoma = tested on: LOX IMVI melanoma

Structure (SMILES): COc1ccc2c3c1O[C@H](c1ccc(O)cc1)[C@H]3[N+](C)(C)CC2
- TGI (HCT-15 colon): > 100 µM
- TGI (TK-10 renal): > 100 µM
- TGI (EKVX NSCLC): > 100 µM
- TGI (T-47D breast): > 100 µM
- TGI (PC-3 prostate): > 100 µM
- TGI (MDA-N): > 100 µM
- TGI (CCRF-CEM leukemia): > 100 µM
- TGI (U251 CNS): > 100 µM
- TGI (SF-539 CNS): > 100 µM
- TGI (OVCAR-5 ovarian): > 100 µM
- TGI (BT-549 breast): > 100 µM
- TGI (UACC-257 melanoma): > 100 µM
- TGI (SK-MEL-5 melanoma): > 100 µM
- TGI (HOP-92 NSCLC): > 100 µM
- TGI (NCI-H460 lung): > 100 µM
- TGI (OVCAR-3 ovarian): > 100 µM
- TGI (UACC-62 melanoma): > 100 µM
- TGI (OVCAR-8 ovarian): > 100 µM
- TGI (A549 NSCLC): > 100 µM
- TGI (MOLT-4 leukemia): > 100 µM
- TGI (NCI/ADR-RES ovarian): > 100 µM
- TGI (IGROV1 ovarian): > 100 µM
- TGI (MCF7 breast): > 100 µM
- TGI (K-562 leukemia): 88.2 µM
- TGI (786-0 renal): > 100 µM
- TGI (NCI-H226 lung): > 100 µM
- TGI (SF-295 CNS): > 100 µM
- TGI (NCI-H23 lung): > 100 µM
- TGI (COLO 205 colon): > 100 µM
- TGI (RXF 393 renal): > 100 µM
- TGI (SK-OV-3 ovarian): > 100 µM
- TGI (RPMI-8226 leukemia): > 100 µM
- TGI (SF-268 CNS): > 100 µM
- TGI (SNB-19 CNS): > 100 µM
- TGI (SW-620 colon): > 100 µM
- TGI (A498 renal): > 100 µM
- TGI (HS 578T breast): > 100 µM
- TGI (MDA-MB-435): > 100 µM
- TGI (HT29 colon): > 100 µM
- TGI (MALME-3M melanoma): > 100 µM
- TGI (HCT-116 colon): > 100 µM
- TGI (NCI-H522 lung): > 100 µM
- TGI (SK-MEL-28 melanoma): > 100 µM
- TGI (MDA-MB-231 breast): > 100 µM
- TGI (M14 melanoma): > 100 µM
- TGI (HCC-2998 colon): > 100 µM
- TGI (HOP-62 NSCLC): > 100 µM
- TGI (SK-MEL-2 melanoma): > 100 µM
- TGI (SR leukemia): > 100 µM
- TGI (SN12C renal): > 100 µM
- TGI (OVCAR-4 ovarian): > 100 µM
- TGI (HL-60(TB) leukemia): 96.1 µM
- TGI (ACHN renal): > 100 µM
- TGI (SNB-75 CNS): > 100 µM
- TGI (CAKI-1 renal): > 100 µM
- TGI (KM12 colon): > 100 µM
- TGI (DU-145 prostate): > 100 µM
- TGI (UO-31 renal): > 100 µM
- TGI (LOX IMVI melanoma): > 100 µM
